Measurements published in patent US5474929A, “Selectable/reporter gene for use during genetic engineering of plants and plant cells” (National Research Council of Canada, priority 1993, dated 1995).

Assays:
[1] = test system: plant cells, such as soybean (SB-1), tobacco and Brassica sp.; test: Inhibition of plant cell growth by deoxyadenosine and analogs in culture medium; format: cell-based
[2] = test system: leaf discs from Normal (non-transformed) plants; test: Culture of leaf discs from non-transformed plants on selective media; format: cell-based, Nicotiana tabacum
Experimental: (§1) Leaf discs cut from Nicotiana tabacum cv. Xanthi were soaked in a dilution of an overnight culture of Agrobacterium/pDY18 for several seconds, blotted dry and placed on Murashige and Skoog medium containing Gamborg's (MS/B5 medium containing 30 g/l sucrose, 2 mg/l2,4-dichlorophenoxy acetic acid and […] phytoagar). After 2 days of co-cultivation the leaf discs were placed on medium containing ara-A (100 μM) or cordycepin (50 μM) as selective agents and 500 μg/ml carbenicillin to inhibit Agrobacterium growth. The shoots which were regenerated were transferred to rooting medium containing MS basal medium containing Gamborg's vitamins (MS/B5, Sigma), 30 g/l sucrose, 0.1 mg/l a-naphthalene acetic acid (NAA), 500 μg/ml carbenicillin and 100 μg/ml kanamycin and 6 g/l phytoagar, adjusted to pH 5.6. Regenerated plants were transferred to soil and grown at 25° C. in an 18/6 hrs day/night cycle. Two plants designated 18-2 and 18-3 were chosen for further study.
(§2) Leaf discs cut from plant 18-2, 18-3, and Normal (non-transformed) plants were cultured on agar MS agar media containing either no selective agent or ara-A (100 μM) or cordycepin (50 μM).

[3] = test system: tobacco (Nicotiana tabacum cv. Xenthi) leaf explants; test: Effect on growth of tobacco leaf explants (fresh weight increase); format: cell-based; details: average after 3 weeks in culture
Experimental: The fresh weight increase was determined after 3 weeks in culture.

[4] = test system: leaf discs from ADA transformed plants 18-2, 18-3; test: Culture of leaf discs from ADA transformed plants on selective media; format: cell-based, Nicotiana tabacum
Experimental: as §1, §2

[5] = test system: soybean cells (Glycine max) line SB-1; test: Effect on growth of soybean cells in culture (dry weight increase); format: cell-based; details: for Increase In Dry Weight: average after 6 days in culture
Experimental: Aliquots of cells were subcultured to medium containing either 0, 0.74 μM, 7.4 μM, 74 μM of 2'-deoxyadenosine and cultured for 6 days. The cells were then harvested on filters, oven dried and weighed.

| Compound | growth of plant cells in presence of compound in culture medium [1] | Increase in Fresh Weight ([3]; 40 μM) | Increase in Fresh Weight ([3]; 80 μM) | Increase in Fresh Weight ([3]; 160 μM) | other results |
| --- | --- | --- | --- | --- | --- |
| Nc1nc(Cl)nc2c1ncn2[C@@H]1O[C@H](CO)[C@@H](O)[C@H]1O [2-chloroadenosine] | inhibited |  |  |  |  |
| Nc1ncnc2c1ncn2[C@@H]1O[C@H](CO)C[C@H]1O [Cordycepin, 3'-deoxyadenosine] | inhibited | 0.04 + 0.049 g | 0.02 ± 0.001 g | 0.02 ± 0.001 g | growth of tissues on selective medium ([2]; cordycepin 50 μM): No growth was observed; Increase in Fresh Weight ([3]; 5 μM): 0.61 ± 0.059 g; Increase in Fresh Weight ([3]; 10 μM): 0.10 ± 0.016 g; Increase in Fresh Weight ([3]; 20 μM): 0.06 ± 0.008 g; growth of tissues on selective medium ([4]; transformed plant 18-2, cordycepin 50 μM): proliferated; growth of tissues on selective medium ([4]; transformed plant 18-3, cordycepin (50 μM)): proliferated |
| Nc1ncnc2c1ncn2[C@H]1CC[C@@H](CO)O1 [2'-3'-dideoxyadenosine] | inhibited |  |  |  |  |
| Nc1ncnc2c1ncn2[C@@H]1O[C@H](CO)[C@@H](O)[C@H]1O [Adenosine] |  | 0.95 ± 0.069 g | 0.81 ± 0.060 g | 0.94 ± 0.056 g | Increase in Fresh Weight ([3]; 320 μM): 0.57 ± 0.052 g |
| OC[C@H]1O[C@@H](n2cnc3c(Cl)ncnc32)[C@H](O)[C@@H]1O [6-chloropurine riboside] | inhibited |  |  |  |  |
| COc1ncnc2c1ncn2[C@@H]1O[C@H](CO)[C@@H](O)[C@H]1O [6-methoxypurine riboside] | inhibited |  |  |  |  |
| Nc1nc(N)c2ncn([C@@H]3O[C@H](CO)[C@@H](O)[C@H]3O)c2n1 [2,6-diaminopurine riboside] | inhibited |  |  |  |  |
| Nc1ncnc2c1ncn2[C@@H]1O[C@H](CO)[C@H](O)[C@H]1O [xyl-A, 9-B-D-xylofuranosyl adenine] | inhibited |  |  |  |  |
| Nc1ncnc2c1ncn2[C@H]1C[C@H](O)[C@@H](CO)O1 [2'-deoxyadenosine] | inhibited | 0.74 ± 0.058 g | 0.96 ± 0.050 g | 0.32 ± 0.038 g | Increase in Fresh Weight ([3]; 320 μM): 0.07 ± 0.005 g; Increase in Fresh Weight ([3]; 640 μM): 0.04 ± 0.003 g; Increase In Dry Weight ([5]; 0.74 μM): 6.05 mg; Increase In Dry Weight ([5]; 7.40 μM): 3.51 mg; Increase In Dry Weight ([5]; 74.00 μM): 1.93 mg; effect on growth of soybean cells ([5]; all three concentrations (0.74, 7.4, 74 μM), 6 days): inhibitory |
| Nc1ncnc2c1ncn2[C@@H]1O[C@H](CO)[C@@H](O)[C@@H]1O [Arabinofuranosyl, 9-B-D-arabinofuranosyl adenine] | inhibited | 0.10 ± 0.048 g | 0.05 ± 0.008 g | 0.02 ± 0.001 g | growth of tissues on selective medium ([2]; ara-A 100 μM): No growth was observed; Increase in Fresh Weight ([3]; 5 μM): 0.56 ± 0.047 g; Increase in Fresh Weight ([3]; 10 μM): 0.32 ± 0.037 g; Increase in Fresh Weight ([3]; 20 μM): 0.23 ± 0.025 g; growth of tissues on selective medium ([4]; transformed plant 18-2, ara-A 100 μM): proliferated; growth of tissues on selective medium ([4]; transformed plant 18-3, ara-A (100 μM)): proliferated |
